One data set addresses mAb 6D8. In words: SPR binding of synthetic MSP2 peptides to immobilized (captured) mAb 6D8. On the set-up: species or system mouse. The conditions noted are these: Biacore T200, mAb 6D8 captured with Mouse Antibody Capture kit, peptides in 20 mM HEPES, 150 mM NaCl, 3 mM EDTA, 0.05 % Tween20, pH 7.4, from concentration dependence of steady-state responses, ± standard deviation of three replicate experiments. How it is done: To explore the structural basis of epitope masking, it was necessary to first define the minimal epitope of mAb 6D8. […]
(§1) mM scale) using a three-fold equivalent of FMOC-protected amino acid, HCTU and DIPEA in DMF per cycle. Each amino acid coupling was carried out for 30 min at room temperature with continuous shaking. Chain deprotection was carried out in 50% piperidine in DMF for 2 min. Each step in the cycle was terminated with an extensive DMF wash. Peptides were N-terminally acetylated after the last coupling and deprotected, using a three-fold equivalent of acetic anhydride and Dipea in DMF.
The fully assembled peptides were dried under vacuum and cleaved for 3 h in a mixture of TFA:TIPS:water (95:2.5:2.5 v/v). The cleaved material was precipitated in cold diethyl ether overnight at -20 °C. T he insoluble peptide material was spun down at 4,000 rpm for 30 min at 4 °C and the pellet washed twice in cold diethyl ether prior to removal of the organic phase.
The crude peptide mixture was resuspended in 50% acetonitrile/0.1% TFA, filtered and freeze-dried prior to HPLC purification.
2 mg/mL for HPLC purification. […]
linear gradient of 5 to 40% of solvent B (90% acetonitrile / 9.9% water / 0.1% TFA) against solvent A (0.1% TFA in water) over 40 min. […]
mass spectrometry (LC-MS).
Affinity measurements. […]
Where low peptide solubility precluded ITC measurements, affinity was estimated by surface plasmon resonance (SPR) (Biacore T200, GE Healthcare) using a Mouse Antibody Capture kit (GE Healthcare). Synthetic peptides were resuspended in running buffer (20 mM HEPES, 150 mM NaCl, 3 mM EDTA, 0.05 % Tween20, pH 7.4) and injected over the 6D8-captured
For the substance Ac-AYNMSIRR-NH2 [MSP2_15-22], the Kd stood at 87 ± 21 nM.
Same read-out and setting: to Ac-NAYNMSIRR-NH2 [MSP2_14-22] belongs 6 ± 2 nM; to Ac-FINNAYNMSIRRS-NH2 [MSP2_11-23], 6 ± 3 nM; to Ac-AYNMSIRRS-NH2 [MSP2_15-23], 34 ± 12 nM.

Still in this data set, the particulars now being: at up to 1 μM peptide concentration.
For the substance Ac-AYNMSIRR-NH2 [MSP2_15-22], the “Binding to immobilized mAb 6D8 (in words)” value is “detectable binding”.
“NAYNMSIR [MSP2_14-21, N-acetylated, C-amidated synthetic peptide, residues 14-21 of MSP2]”: the “Binding to immobilized mAb 6D8 (in words)” value is on record as “abolishes binding”.
The same measure, in the same setting: to “YNMSIRRS [MSP2_16-23, N-acetylated, C-amidated synthetic peptide, residues 16-23 of MSP2]” belongs “abolishes binding”.

Test system in a further data set: not listed separately
The data set is described as follows: Aggregation tendency of peptides on resuspension for HPLC purification. Conditions: crude peptide resuspended for HPLC purification; had to be resuspended in 10 mM acetic acid at 1 mg/mL. It counts as physicochemical. How it is done:
as §1
The fully assembled peptides were dried under vacuum and cleaved for 3 h in a mixture of TFA:TIPS:water (95:2.5:2.5 v/v). The cleaved material was precipitated in cold diethyl ether overnight at -20 °C. […]
MSP2 peptides were purified on a reverse-phase C18 column (Zorbax, 10 x 300 mm) using a linear gradient of 5 to 40% of solvent B (90% acetonitrile / 9.9% water / 0.1% TFA) against solvent A (0.1% TFA in water) over 40 min. The purity of MSP2 peptides was assessed by mass spectrometry (LC-MS).
Affinity measurements. Binding affinity constants of 6D8 antibodies (IgG and scFv) for synthetic peptides and recombinant allelic forms of MSP2 were determined by isothermal titration calorimetry (Microcal ITC-200, GE Healthcare) using either murine mAb 6D8 produced and affinity-purified by the Walter and Eliza Hall Institute antibody facility3 or 6D8 scFv. […]
For the substance “INNAYNMS [MSP2_12-19, N-acetylated, C-amidated synthetic peptide, residues 12-19 of MSP2]”, the Tendency to aggregate result is “high tendency”.
“NNAYNMSI [MSP2_13-20, N-acetylated, C-amidated synthetic peptide, residues 13-20 of MSP2]”: the Tendency to aggregate result is given as “high tendency”.

(Values after PMC4428071, “Structural basis for epitope masking and strain specificity of a conserved epitope in an intrinsically disordered malaria vaccine candidate” (Scientific Reports, 2015).)
